Results from patent US6743917B2, “Camptothecin analogs and methods of preparation thereof” (University of Pittsburgh, priority 1993, dated 2004).
Read-outs that look alike come from different tables or passages of the source.

Legend:
[1] = tested on: HL-60 (human promyelocytic leukemic) cells; assay: Cytotoxicity assay, HL-60 cells (XTT-microculture tetrazolium assay); format: cell-based; details: Homo sapiens; HL-60 cells, 72 hr incubation, XTT; read-out: Inhibition of cancer cell growth IC50, HL-60
Procedure: The camptothecin derivatives were evaluated for their cytotoxic effects on the growth of HL-60 (human promyelocytic leukemic), 833K (human teratocarcinoma) and DC-3F (hamster lung) cells in vitro. The cells were cultured in an initial density of […]. They were maintained in a 5% CO2 humidified atmosphere at 37° C. in RPMI-1640 media (GIBCO-BRL Grand Island, N.Y.) containing penicillin 100 μ/ml)/streptomycin (100 ^μg/ml) (GIBCO-BRL) and 10% heat inactivated fetal bovine serum. The assay was performed in duplicate in 96-well microplates. The cytotoxicity of the compounds toward HL-60 cells following 72 hr incubation was determined by XTT-microculture tetrazolium assay. Scudiero, D. A., et al., Cancer Res., 48, 4827 (1988), the disclosure of which is incorporated herein by reference. 2′, 3′-bis(-methoxy-4-nitro-5-sulfheny)-5-[(phenylamino)carbonyl]-2H-tetrazolium hydroxide (XTT) was prepared at 1 mg/ml in prewarmed (37° C.) medium without serum. Phenazine methosulfate (PMS) and fresh XTT were mixed together to obtain 0.075 mM PMS-XTT solution (25 ^μl of the stock 5 mM PMS was added per 5 ml of 1 mg/ml XTT). Fifty ^μl of this mixture was added to each well of the cell culture at the end of 72 hr incubation. After incubation at 37° C. for 4 hr., absorbance at 450 nm and 630 nm was measured with a microplate reader (EL340, Bio-Tek Instruments, Inc., Winooski, Vt.).

[2] = tested on: 833K (human teratocarcinoma) cells; assay: Cytotoxicity assay, 833K cells (sulforhodamine B protein content); format: cell-based; details: Homo sapiens; 833K cells, sulforhodamine B; read-out: Inhibition of cancer cell growth IC50, 833K
Procedure: (§1) Cultures were fixed with trichloroacetic acid and then stained for 30 minutes with 0.4% sulforhodamine B dissolved in 1% acetic acid. Unbound dye was removed by acetic acid washes, and the protein-bound dye was extracted with an unbuffered Tris base [tris(hydroxy-methyl)aminomethan] for determination of absorbance at 570 nm in a 96-well microplate reader. The experiments were carried out in duplicate using five to six concentrations of the drugs tested. Data were analyzed via computer software.

[3] = tested on: DC-3F (hamster lung) cells; assay: Cytotoxicity assay, DC-3F cells (sulforhodamine B protein content); format: cell-based; details: Mesocricetus auratus, DC3F; DC-3F cells, sulforhodamine B; read-out: Inhibition of cancer cell growth IC50, DC-3F
Procedure: as §1

[4] = human; for t1/2: blood
[5] = earlier studies; cited from earlier work
[6] = Kinetics of lactone ring opening in whole human blood (HPLC); details: Whole Blood, physiological temperature;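 also: hydrolytic opening of the camptothecin lactone ring followed over time by quantitative C18 reversed-phase HPLC in human whole blood at physiological temperature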
[7] = Kinetics of lactone ring opening in PBS buffer (HPLC); format: physicochemical; details: for % Lactone at Equilibrium: PBS; for half-life: pH 7.4
Procedure: Kinetics of Lactone Ring Opening. […] Mi and Burke (1994), supra.
FIG. 21 summarizes the stability of DB172 in phosphate buffered saline (PBS) buffer, pH 7.4, at physiological temperature. Shown in the figure are plots of lactone fraction as a function of time for DB172 at different concentrations. Drug was added to solution from a concentrated DMSO stock solution such that the volumes of DMSO were very small (less than 0.5%) relative to the volume of water. […] At the more dilute drug concentrations the drug hydrolyzes as previously observed for other camptothecins containing the ^α-hydroxy-^δ-lactone moiety.

[8] = Self-association in aqueous solution (fluorescence intensity with time); format: physicochemical; details: lactone drug forms added to solution, time=0
Procedure: FIG. 22 summarizes the dependence of the fluorescence intensity of DB172 as a function of time and pH. In these experiments DB172 is added to solution as the lactone form. At low pH where the drug remains in the lactone form, the change in intensity with time is the lowest. At pH 10, where the conditions are such that the lactone more readily hydrolyzes and forms carboxylate, a significant change in fluorescence intensity is observed. It appears that a pH 10 nonfluorescent micellular aggregates composed of lactone disassemble and form open-ring carboxylate forms that tend to exist in solution as monomeric fluorescent species.
FIG. 23 explores the fluorescence intensity of DB172 as a function of concentration. Following the addition of low concentration of lactone drug to solution, the change in fluorescence signal is the greatest whereas at high drug concentration (10 ^μM) the fluorescence intensity changes are minimal. It is believed that a low concentration the micellular aggregates of DB172 displaying reduced fluorescence can disassemble and form fluorescent carboxylate species, but at higher drug concentration the equilibrium favors that the agent remains in the aggregated or reduced fluorescence state. […] Once again this decrease in fluorescence that occurs at reduced pH appear to be due to the formation of lactone aggregates of reduced fluorescence quantum yield.
FIGS. 21 through 24 are consistent with the unusual ability of DB172 lactone to self-associate and form micelles at micromolar drug concentrations. The micellular DB172 aggregates display a reduced fluorescence. If conditions allow for hydrolysis to occur such that carboxylate forms, there is an increase in the fluorescence intensity of the sample. FIG. 25 compares the relative change in the fluorescence emission of a sample following addition of lactone drug forms to solution. In these experiments the values for each drug are normalized to a value of 1 at time equals to zero, and the ability of the various analogs to disassociate in the event the drugs are aggregated at time=0 is monitored with time. […]

[9] = Kinetics of lactone ring opening in PBS containing HSA (HPLC); details: for % Lactone at Equilibrium / t1/2: HSA (PBS containing 30 mg/ml HSA)
[10] = Equilibrium binding to DMPC small unilamellar vesicles (fluorescence anisotropy titration); details: for KDMPC overall association constant: PBS buffer at PH 7.4 and 37° C.
[11] = Equilibrium binding to DMPG small unilamellar vesicles (fluorescence anisotropy titration); details: PBS buffer at PH 7.4 and 37° C.
in vitro = details: human
[12] = Kinetics of lactone ring opening in RBC (HPLC); format: in vitro ADME, human
Text: Kinetics of Lactone Ring Opening. […] Mi and Burke (1994), supra. […] Louis, Mo.) was used.

[13] = tested on: MDA-MB-435 tumorigenic metastatic human breast cancer cells; assay: cells; format: cell-based
Procedure: Cells. […] The cells were exposed to a range of drug concentrations for 72 hr exposure periods and then viability was assessed using a sulphorrhodamine B (SRB) assay. SRB assays were performed using a standard assay.
Sulphorhodamine B (SRB) assay was used. This assay measures the total protein levels in the living cells. Proteins from dead cells are lysed and removed in the washing step before TCA fixation. However, it is possible that cells in the early stage of death still have their membrane integrity and therefore retain the protein contents inside. As a result, the optical density at 490 nm can sometimes be overestimated and the cytotoxicity underestimated. […] The SRB assay is now a well regarded assay and was recently approved by NCI as a standard assay for anticancer drug screening.

Row | Structure (SMILES) | IC50 [1] | IC50 [2] | IC50 [3] | % lactone at equilibrium in whole human blood [5] | % Lactone at Equilibrium [6] | % Lactone at Equilibrium [9] | KDMPC overall association constant [10] | KDMPG overall association constant [11] | % Lactone at Equilibrium [7] | half-life ([7]; buffer) | other results
1 | CCc1c2c(nc3ccc(OC(=O)N4CCC(N5CCCCC5)CC4)cc13)-c1cc3c(c(=O)n1C2)COC(=O)[C@]3(O)CC [IRT, irinotecan, reference compound] | 270 nM | 487 nM | 372 nM | 21.0% | 21.0% | – | – | – | – | – | lactone level at equilibrium in whole blood, fold greater than 9-aminocamptothecin [4]: approximately 40 fold
2 | CC[C@@]1(O)C(=O)OCc2c1cc1n(c2=O)Cc2c-1nc1ccccc1c2CC[Si](C)(C)C [DB-172, (20S)-7-[(2-Trimethylsilyl)ethyl]camptothecin] | – | – | – | – | 24.1 +/− 2.6% | 4.3 +/− 1.0% | 10500 M⁻¹ | 10600 M⁻¹ | – | – | lactone ring stability at high drug concentrations ([7]; PBS buffer, pH 7.4, physiological temperature): marked stabilization of the lactone ring; self-association / aggregation state in solution [8]: self-associates to an exceptionally high degree; t1/2 [6]: 106.6 ± 10.8 min; t1/2 [9]: 86.1 ± 10.3 min; K value for DMPC, fold greater than camptothecin ([10]; relative to camptothecin): ~100 fold
3 | CC[C@@]1(O)C(=O)OCc2c1cc1n(c2=O)Cc2c-1nc1ccccc1c2[Si](C)(C)CCCN(C)C.Cl [DB-104, 7-(3-dimethylaminopropyldimethylsilyl) camptothecin hydrochloride salt] | – | – | – | – | – | – | – | – | 7.5 +/− 0.2% | – | t1/2 ([7]; buffer): 24.1 ± 1.0 min; t1/2 [4]: 77.2 ± 1.8 min
4 | CCc1c2c(nc3ccc(O)cc13)-c1cc3c(c(=O)n1C2)COC(=O)[C@]3(O)CC [SN-38, 10-hydroxy-7-ethylcamptothecin, reference compound] | – | – | – | 19.5% | 19.5% | – | 260 M⁻¹ | 160 M⁻¹ | – | – | t1/2 [4]: 50.7 ± 1.4 min; % Lactone at Equilibrium ([6]; listed as SN 38): 20.2 +/− 1.9%
5 | CC[C@@]1(O)C(=O)OCc2c1cc1n(c2=O)Cc2cc3c(CN(C)C)c(O)ccc3nc2-1 [Topotecan, topotecan, reference compound] | – | – | – | 11.9% | 8.61 +/− 0.4% | 7.06 +/− 0.3% | – | – | – | – | lactone level at equilibrium in whole blood, fold greater than 9-aminocamptothecin [4]: 20 fold; half-life (in vitro; whole blood): 30.9 min; % Lactone at Equilibrium ([6]; listed as topotecan): 8.6%; K value for DMPC liposomes, times less than that for camptothecin ([10]; relative to camptothecin): ~10 times
6 | CCC1(O)C(=O)OCc2c1cc1n(c2=O)Cc2c-1nc1ccc(N)cc1c2[Si](C)(C)C (stereo in doubt) [Example 8, (20S)-10-amino-7-trimethylsilylcamptothecin] | 0.52 nM | 5.7 nM | 0.72 nM | – | – | – | 820 M⁻¹ | 360 M⁻¹ | 10.5 +/− 0.3% | 31.3 min | % Lactone at Equilibrium [4]: 12.3 +/− 0.0%; half-life (in vitro; blood): 37.6 min
7 | CC[C@@]1(O)C(=O)OCc2c1cc1n(c2=O)Cc2c-1nc1ccccc1c2[Si](C)(C)CCCCl [DB-148, (20S)-7-(3-chloropropyldimethylsilyl)camptothecin] | – | – | – | – | 2.2 +/− 3.6% | 2.7 +/− 0.2% | – | – | 12.0 +/− 0.5% | – | % Lactone at Equilibrium ([12]; RBC): 43.4 +/− 0.8%; t1/2 ([12]; RBC): 59.7 ± 2.9 min; t1/2 [6]: 85.6 ± 9.2 min; t1/2 [9]: 16.0 ± 0.2 min
8 | CCC1(O)C(=O)OCc2c1cc1n(c2=O)Cc2c-1nc1ccccc1c2[Si](C)(C)C(C)(C)C (stereo in doubt) [Example 2, (20S)-7-tert-butyldimethylsilylcamptothecin] | 0.12 nM | 1.2 nM | 2.9 nM | – | – | – | – | – | 12.2 +/− 0.4% | 27.9 min | % Lactone at Equilibrium ([12]; human): 59.4 +/− 0.0%; half-life ([12]; human): 79.4 min; % Lactone at Equilibrium [4]: 1.0 +/− 0.1%; half-life (in vitro; blood): 71.9 min
9 | CC[C@@]1(O)C(=O)OCc2c1cc1n(c2=O)Cc2c-1nc1ccc(N)cc1c2CC[Si](C)(C)C [DB-173] | – | – | – | – | – | – | 5800 M⁻¹ | 5800 M⁻¹ | 11.9 +/− 0.3% | 45.3 min | IC50 ([13]; Homo sapiens, MDA-MB-435, 72 h, read-out: IC50 (w/o HSA)): 4 nM; effect of 1 mg/ml HSA on the cytotoxic activity ([13]; MDA-MB-435 cells): no effect; self-association / aggregation state in solution [8]: much more likely to be found in solution as monomeric drug relative to DB172; half-life (in vitro; whole blood): 69 min; half-life ([9]; human, PBS containing 30 mg/ml HSA, pH 7.4): 49 min; K value for DMPC, fold greater than camptothecin ([10]; relative to camptothecin): ~58 fold
